According to ChEMBL document CHEMBL2417541, “Aromatic glucosides from the seeds of Prunus davidiana” (J Nat Prod, 2013):

Tests used:
Liver microsomes [1] = test: Antioxidant activity in rat liver microsomes assessed as inhibition of Fe2+-cysteine-induced lipid peroxidation measured malondialdehyde level at 10^-4 M/L incubated for 15 mins prior to FeSO4 addition measured after 15 mins by TBA method relative to control; assay type: functional; settings: Microsome
Liver microsomes [2] = test: Antioxidant activity in rat liver microsomes assessed as inhibition of Fe2+-cysteine-induced lipid peroxidation measured malondialdehyde level at 10^-5 M/L incubated for 15 mins prior to FeSO4 addition measured after 15 mins by TBA method relative to control; assay type: functional; settings: Microsome
BGC-823 = test: Cytotoxicity against human BGC823 cells; assay type: cell-based
Bel-7402 = test: Cytotoxicity against human Bel7402 cells; assay type: cell-based
Liver microsomes [3] = test: Antioxidant activity in rat liver microsomes assessed as inhibition of Fe2+-cysteine-induced lipid peroxidation measured malondialdehyde level at 10^-6 M/L incubated for 15 mins prior to FeSO4 addition measured after 15 mins by TBA method relative to control; assay type: functional; settings: Microsome
HCT-8 = test: Cytotoxicity against human HCT8 cells; assay type: cell-based
A549 = test: Cytotoxicity against human A549 cells; assay type: cell-based
A2780 = test: Cytotoxicity against human A2780 cells; assay type: cell-based

| Compound | inhibition (Liver microsomes [1]) [%] | inhibition (Liver microsomes [2]) [%] | IC50 (BGC-823) [µM] | IC50 (Bel-7402) [µM] | inhibition (Liver microsomes [3]) [%] | IC50 (HCT-8) [µM] | IC50 (A549) [µM] | IC50 (A2780) [µM] |
| --- | --- | --- | --- | --- | --- | --- | --- | --- |
| O=C(OC[C@H]1O[C@@H](O[C@@H](C(=O)O)c2ccccc2)[C@H](O)[C@@H](O)[C@@H]1O)c1ccccc1 | 67 | 60 | > 10 | > 10 | 53 | > 10 | > 10 | > 10 |
| CCOC(=O)[C@H](O[C@@H]1O[C@H](CO[C@@H]2O[C@H](CO)[C@@H](O)[C@H](O)[C@H]2O)[C@@H](O)[C@H](O)[C@H]1O)c1ccccc1 | 51 | 51 | > 10 | > 10 | 56 | > 10 | > 10 | > 10 |
| COc1cc(CO)ccc1O[C@@H]1O[C@H](COC(=O)c2ccccc2)[C@@H](O)[C@H](O)[C@H]1O | 51 | 42 | > 10 | > 10 | 41 | > 10 | > 10 | > 10 |
| O=C(OC[C@H]1O[C@@H](OC[C@H](O)[C@@H](O)c2ccc(O)cc2)[C@H](O)[C@@H](O)[C@@H]1O)c1ccccc1 | 88 | 64 | > 10 | > 10 | 57 | > 10 | > 10 | > 10 |
| O=C(OC[C@H]1O[C@@H](OC[C@H]2O[C@@H](OCc3ccccc3)[C@H](O)[C@@H](O)[C@@H]2O)[C@H](O)[C@@H](O)[C@@H]1O)c1ccccc1 | 55 | 50 | > 10 | > 10 | 59 | > 10 | > 10 | > 10 |
| N#C[C@H](O[C@@H]1O[C@H](CO[C@@H]2O[C@H](COC(=O)c3cccnc3)[C@@H](O)[C@H](O)[C@H]2O)[C@@H](O)[C@H](O)[C@H]1O)c1ccccc1 | 88 | 67 | > 10 | > 10 | 56 | > 10 | > 10 | > 10 |
| O=C(OC[C@H]1O[C@@H](OC[C@H]2O[C@@H](OC(=O)c3ccccc3)[C@H](O)[C@@H](O)[C@@H]2O)[C@H](O)[C@@H](O)[C@@H]1O)c1ccccc1 | 56 | 66 | > 10 | > 10 | 56 | > 10 | > 10 | > 10 |
